Reference: US20140235502A1, “METHOD FOR SCREENING AND QUANTIFYING ISOPRENE BIOSYNTHESIS ENZYME ACTIVITY” (Institute of Bioscience and Biotechnology, priority 2013, published 2014)

B1: IspSm2: mutant IspSm1 containing L35R (SEQ ID NO: 8), screened from random mutant library (protein)
chain: MACSVSTENVSFTETETETRRSANYEPNSWDYDYRLSSDTDESIEVYKDKAKKLEAEVRREINNEKAEFLTLLELIDNVQRLGLGYRFESDIRRALDRFVSSGGFDAVTKTSLHATALSFRLLRQHGFEVSQEAFSGFKDQNGNFLENLKEDIKAILSLYEASFLALEGENILDEAKVFAISHLKELSEEKIGKDLAEQVNHALELPLHRRTQRLEAVLSIEAYRKKEDADQVLLELAILDYNMIQSVYQRDLRETSRWWRRVGLATKLHFARDRLIESFYWAVGVAFEPQYSDCRNSVAKMFSFVTIIDDIYDVYGTLDELELFTNAVERWDVNAIDDLPDYMKLCFLALYNTINEIAYDNLKEKGENILPYLTKAWADLCNAFLQEAKWLYNKSTPTFDDYFGNAWKSSSGPLQLVFAYFAVVQNIKKEEIENLQKYHDIISRPSHIFRLCNDLASASAEIARGETANSVSCYMRTKGISEELATESVMNLIDETWKKMNKEKLGGSLFAKPFVETAINLARQSHCTYHNGDAHTSPDELTRKRVLSVITEPILPFER
modifications: IspSm2

How the values were obtained:
[1] = system: IspGESS artificial genetic circuit (TbuT regulator); assay: Quantitative fluorescence response of pIspGESS-containing recombinant E. coli to added compounds (FACS); format: cell-based, E. coli DH5α; conditions: for response of IspGESS fluorescence to the compound: 0-2000 μM, FACS; for concentration from which fluorescence started to be sensed: pIspGESS in E. coli DH5α, M9 medium, 30° C. 18 hours, FACS FL1-H
Protocol: In order to examine the isoprene, toluene, benzene and phenol compounds sensing function of pIspGESS-containing recombinant E. coli, pIspGESS of Example 1 was introduced into a single colony of E. coli DH5α (NEB, USA) by heat shock, and then the E. coli colony was inoculated into an LB liquid medium (1% (w/v) trypton, 0.5% (w/v) yeast extract, and 1% (w/v) sodium chloride) supplemented with 50 μg/Ml of ampicillin and was cultured with shaking at 37° C. for 14 hours. The culture was inoculated into M9 minimal medium (containing 50 μg/Ml ampicillin, 4% glucose and 1% thiamine) at a concentration of 1% and then cultured with shaking at 37° C. for 6 hours. Various concentrations (0-2000 μM) of isoprene was added to each of the test tubes containing the culture broth, after then the culture was cultured with shaking at 30° C. for 18 hours, thereby inducing the expression of fluorescence in the culture. The intensity of intracellular fluorescence induced by each concentration of toluene was analyzed by a FACS Calibur system (Becton Dickinson, USA). As a detector, a FSC, SSC, FL1-H (excitation=488 nm, emission=530/30 nm) detector was set, and data obtained by observing 10,000 samples were analyzed using CellQuest Pro (Becton Dickinson, USA).

[2] = system: IspGESS artificial genetic circuit; assay: Detection of isoprene synthase activity with IspGESS, pCDF vector (FACS); format: cell-based; conditions: E. coli BL21(DE3), FACS 10,000 cells
Protocol: First, the IspSm1 gene was inserted into the NcoI-AvrII restriction enzyme site of a pCDF-duet vector (Novagen, USA) to prepare pCDF-IspSm1, which was then introduced into an E. coli BL21 (DE3) strain (NEB, USA) containing pIspGESS of […] of ampicillin and 10 μg/Ml of streptomycin were added to LB liquid medium containing 0.1 mM of IPTG (isopropyl-thio-β-Dgalactopyranoside), and E. coli cells were cultured with shaking in the LB liquid medium at 37° C. for 16 hours. Then, the cultured cells were transferred into M9 liquid medium containing 0.1 mM IPTG and were cultured at 28° C. and 200 rpm for 20 hours. […] The intensity of fluorescence in the cultured cells was analyzed using a FACS Calibur system (Becton Dickinson, USA). As a detector, a FSC, SSC, FL1-H (excitation=488 nm, emission=530/30 nm) detector was set, and data obtained by observing 10,000 samples were analyzed.
As a result, 5×10^5 of mutant library was constructed. […] With the criterion for screening, cells showing fluorescence intensity which is at least 50% higher than that of IspSm1 were sorted using a FACScalibur system (Becton Dickinson, USA). Then, 6 clones having higher fluorescence intensity than IspSm1 were isolated.
The activities of the isolated clones were analyzed by a FACS. As detectors, FSC, SSC, FL1-H (excitation=488 nm, emission=530/30 nm) detectors were set, and 10,000 cells were analyzed.

[3] = system: IspGESS artificial genetic circuit; assay: Detection of isoprene synthase activity with IspGESS, pPROLar vector (FACS, t-test); format: cell-based; conditions: E. coli DH5α
Protocol: First, IspSm1 and IspSm2 genes were amplified using PCR with primers (SEQ ID NOS: 13, 14), and inserted into the NdeI-XbaI restriction enzyme site of a pPROLar vector for pPROLar-ispSm1 and pPROLar-ispSm2 (SEQ ID NOS: 15, 16). Then these two vectors were transformed into an E. coli DH5α strain containing IspGESS of Example 1. 50 μg/Ml of ampicillin and 10 μg/Ml of kanamycin were added to LB liquid medium, and E. coli cells were cultured with shaking in the LB liquid medium at 37° C. for 16 hours. 4 Ml of the culture medium was placed in a 10 Ml vial and the cultured bacterial strain was then inoculated at a concentration of 1%. Then, the vial was sealed with a septum and the cells were cultured at 28° C. and 200 rpm for 24 hours. The intensity of fluorescence in the cultured cells was analyzed using a FACScalibur system (Becton Dickinson, USA). As detectors, FSC, SSC, and FL1-H (excitation=488 nm, emission=530/30 nm) detectors were set, and 10,000 samples were analyzed.
To verify the fluorescence differences of IspSm1, IspSm2 and no IspS induction control, the flow cytometry data was analyzed by t-test. The t-test compared the mean values of the fluorescence signals between the negative control (IspGESS without IspSm1 (IspSm2) induction) and the case that includes IspSm1 (IspSm2) inducer. […] Note that there are three replicates of each case (FIG. 8).

| Molecule | response of IspGESS fluorescence to the compound [1] | concentration from which fluorescence started to be sensed [1] [µM] | fluorescence intensity / isoprene synthesis activity compared with IspSm1 [2] | fluorescent mean intensity compared with IspGESS with IspSm1 [3] | intensity of fluorescence compared with cells containing neither IspSm1 nor IspSm2 [3] |
| --- | --- | --- | --- | --- | --- |
| c1ccccc1 [benzene] | responded | 1 | – | – | – |
| C=CC(=C)C [isoprene] | increased as the isoprene concentration increased | 50 | – | – | – |
| Oc1ccccc1 [phenol] | responded | 50 | – | – | – |
| Cc1ccccc1 [toluene] | responded | 0.5 | – | – | – |
| B1 | – | – | two times higher | higher | higher |
